{
  "source": "patent US9833492B2",
  "about": "“Combinations of a caspase inhibitor and an antiviral agent” (INSTITUT NATIONAL DE LA SANTE ET DE LA RECHERCHE MEDICALE …, priority 2007, dated 2017)",
  "key": {"[1]": {"tested_on": "apoptosis", "details": "Caserta et al., 2003; cited from earlier work"}, "[2]": {"tested_on": "lymphocytes stimulated by 1 μg/ml of anti-CD-3", "experiment": "lymphocyte proliferation test with CFSE", "type": "cell-based, human", "procedure": "FIG. 13. Analysis by flow cytometry of lymphocyte proliferation after 4 and 5 days' stimulation by 1 μg/ml of anti-CD-3, in the presence or absence of HIV antiproteases or of QVD-OPH.\nThe PBMCs are incubated in the presence of 1 μM of CFSE for 7 minutes at 37° C. The cells are taken up at 1·10^6/ml and then placed in culture and activated by an anti-CD3 at 1 μg/ml (Immunotech).\nA lymphocyte proliferation study was conducted with the fluorescent probe CFSE, which allows cell division to be monitored."}, "[3]": {"tested_on": "cells stimulated by anti-CD3", "type": "cell-based", "details": "human, 1 day, 50 μM", "procedure": "FIG. 14. Analysis of the fall in the mitochondrial transmembrane potential (% Δφm low) by flow cytometry starting from cells stimulated by 1 μg/ml of anti-CD-3 in the presence or absence of different HIV antiproteases and of QVD-OPH.\n(§1) In order to evaluate the change in the transmembrane potential of the inner mitochondrial membrane, the cells were labelled with a fluorescent probe DIOC6 (Molecular Probes, Invitrogen), at a concentration of 40 nM, and incubated for 15 minutes at 37° C. Viral replication was evaluated by internal labelling of the p24 viral protein using an anti-p24-PE antibody (KC-57, Coulter Corp, Beckman).\nThe cell toxicity was evaluated by analysis of the fall in the mitochondrial transmembrane potential (% Δφm low) using the probe DIOC6, by flow cytometry. The cells stimulated by anti-CD3 were analyzed in the same way on the day following activation."}, "[4]": {"tested_on": "primary strains of the HIV-1 virus", "experiment": "replication of primary HIV-1 strains in CD4+ T lymphocytes (p24)", "type": "cell-based", "details": "1 μM", "procedure": "FIG. 7: Graphic representation showing the effect of Q-VD-OPh on primary HIV-1 strains. In all cases (A, B and C), the CD4+ T lymphocytes were stimulated with concanavalin A and IL2 (stimulation being carried out before or during administration of Q-VD-OPh), […], immediately after infection and then 36 hours (d3) and 96 hours (d4) post-infection. A. Analysis by flow cytometry of viral replication in CD4+ T lymphocytes infected with the HIV-1Lai virus or with the serum of a chronic HIV+ patient (strain with X4/R5 dual tropism) and then cultivated in the absence or presence (+Q-VD) of Q-VD-OPh. The percentage of CD4+ cells infected by HIV was determined after intracellular labelling of the p24 viral antigen on the 5th day post-infection in the case of the HIV-Lai virus and on the 6th day post-infection in the case of the serum. […] B. Quantification of viral replication (on the left) and of cell death by measurement of mitochondrial depolarization (on the right) in CD4+ T lymphocytes infected with the serum of the chronic HIV+ patient. […]\nThe CD4^+ cells were incubated for 2 hours at 37° C. in the presence of 10 ng/ml of HIV-1 virus of strain Lai or 50 ng/ml of primary strains of the HIV-1 virus. […] The HIV p24 antigen, the control for the viral load, was measured in the cell culture supernatants by an ELISA test (Abbott). […]"}, "[5]": {"tested_on": "Cytochrome c, Smac/Diablo and Endonuclease G in primary CD4+ T cells infected with HIV-Lai", "experiment": "immunoblot of release of apoptogenic mitochondrial factors after subcellular fractionation", "type": "cell-based, human", "details": "10 μM, day 5 after infection", "procedure": "FIG. 3: Immunoblot (Western blot) showing the effect of Q-VD-OPh on mitochondrial damage resulting from viral replication. Primary CD4+ T cells were infected with HIV-Lai and stimulated with a ConA/IL-2 cocktail and then treated or not treated with 10 μM of Q-VD-OPh (QVD) and/or 10 μM of pepstatin A (PA) immediately after stimulation and then 36 hours (day 3) and 96 hours (day 4) after infection. On the 5th day post-infection, the cells were fractionated into two parts: the membrane fraction and the cytosol fraction. The relocalization of the apoptogenic factors Cytochrome c (Cyt c), Smac/Diablo and Endonuclease G (EndoG) was then evaluated by immunotransfer (Western blot). The proteins Cytochrome c, Smac/Diablo and EndoG were detected using the antibodies indicated above. The proteins Cox IV and actin detected by means of the anti-subunit IV antibodies (clone 1068 Molecular Probe) and anti-actin antibodies (SIGMA), respectively, were used as the control for the fractionation procedure and as the control for the protein load of the gel, respectively. […]\nThe cytosol and mitochondrial fractions were obtained by the subcellular fractionation technique based on selective permeabilization by digitonin according to Foghsgaard et al. {Foghsgaard, 2001}. […] The protein concentration of the cytosol and mitochondrial fractions was determined by the bicinchoninic acid (BCA) method (Bio-Rad). […]"}, "[6]": {"tested_on": "HIV-1 virus", "details": "cited from earlier work"}, "[7]": {"tested_on": "cells infected by HIV", "details": "cells infected by HIV (Petit et al., 2002), cited from earlier work"}, "[8]": {"tested_on": "viral strain HIV-Lai", "experiment": "Example 2: internal p24 viral protein by flow cytometry with different caspase inhibitors", "type": "cell-based, HIV-1", "details": "10 μM", "procedure": "(§2) FIG. 11. Analysis by flow cytometry of the internal viral protein p24 (A) and of the fall in the mitochondrial transmembrane potential (% Δφm low; B) on the 5th (d5) and 7th (d7) day post-infection in primary CD4+ T cells infected by the strain HIV-Lai, after stimulation by Concanavalin A and IL-2 and in the presence or absence of 10 μM of different caspase inhibitors.\nas §1\n(§3) Primary CD4 T cells were infected by the viral strain HIV-Lai and then stimulated by ConA/IL-2 in the presence or absence of Q-VD-OPH, Q-DEVD-OPH (casp-3 inhibitor), Q-LEDH-OPH (caspase-9 inhibitor) and Q-IETD-OPH (caspase-8 inhibitor) at 10 μM for each of the inhibitors. On days 5 and 7 post-infection, the internal p24 viral protein is measured by flow cytometry after fixation and permeabilization of the CD4 T cells. […] Death was evaluated by analysis of the fall in the mitochondrial transmembrane potential (% Δφm low) using the probe DIOC6 by flow cytometry (FIG. 11B). […]"}, "[9]": {"tested_on": "Primary CD4 T cells infected by the viral strain HIV-Lai", "experiment": "Example 2: death by fall in mitochondrial transmembrane potential in infected primary CD4 T cells", "type": "cell-based, human", "details": "10 μM", "procedure": "as §2, §1, §3"}, "[10]": {"tested_on": "HIV viral proteins", "experiment": "Example 2: immunoblot of HIV viral proteins in infected primary CD4 T cells", "type": "cell-based, HIV-1", "details": "versus control cultures", "procedure": "FIG. 12. Analysis by immunoblot of the quantity of HIV viral proteins produced from extracts of primary CD4 T cells infected by the strain HIV-Lai in the presence or absence of different caspase inhibitors.\n20 μg extracts of total lysate prepared with 1% NP40 were boiled for 5 minutes in Laemmli buffer containing 2% SDS and 10% 2-β-mercaptoethanol, then deposited on 10-20% polyacrylamide gradient gels (Invitrogen). After transfer of the proteins, the immunoblots were incubated with the following primary antibodies: anticaspase-3, anticaspase-8 and anticaspase-9 (Cell Signaling), anti-PARP (Pharmingen) and anti-Tubulin (Santa-Cruz).\nPrimary CD4 T cells were infected by the viral strain HIV-Lai and then stimulated by ConA/IL-2 in the presence or absence of Q-VD-OPH, Q-DEVD-OPH (casp-3 inhibitor), Q-LEDH-OPH (caspase-9 inhibitor) and Q-IETD-OPH (caspase-8 inhibitor) at 10 μM for each of the inhibitors. On days 5 and 7 post-infection, the internal p24 viral protein is measured by flow cytometry after fixation and permeabilization of the CD4 T cells. […] Death was evaluated by analysis of the fall in the mitochondrial transmembrane potential (% Δφm low) using the probe DIOC6 by flow cytometry (FIG. 11B). […] Extracts of primary CD4 T cells infected in the presence or absence of the different caspase inhibitors as well as QVD-OPH were analyzed by immunoblot for the HIV viral proteins (FIG. 12)."}},
  "note": "Entries after “also recorded” stand apart in the source; their conditions may differ. Like-named read-outs stand apart in the source and are kept apart here. Where a SMILES comes first, the peptide text is derived from it. [ ]: non-standard residue; d: D form. The star is where a group is joined. Sta = CC(C)C[C@H](N)[C@@H](O)CC(=O)O; Isovaleryl = CC(C)CC(=O)*; Cbz = O=C(OCc1ccccc1)*; CH2F = FC*",
  "data": [
    {"molecule": "COC(=O)CC(NC(=O)OC(C)(C)C)C(=O)CF", "note": "[Boc-D-fmk, tert-butyloxycarbonyl-Asp(O-methyl)-fluoromethyl ketone]", "values": [
      {"measurement": "inhibition of apoptosis", "setting": "[1]", "value": "inhibits apoptosis in a dose-dependent manner"}
    ]},
    {"molecule": "CC(C)(C)NC(=O)[C@@H]1CN(Cc2cccnc2)CCN1C[C@@H](O)C[C@@H](Cc1ccccc1)C(=O)N[C@H]1c2ccccc2C[C@H]1O", "note": "[Indinavir]", "values": [
      {"measurement": "lymphocyte proliferation (CFSE)", "setting": "[2]; 50 μM, after 4 and 5 days' stimulation", "value": "block the proliferation"},
      {"measurement": "fall in Δφm", "setting": "[3]", "value": "70-80%"}
    ]},
    {"molecule": "CC(C)(C)NC(=O)[C@@H]1C[C@@H]2CCCC[C@@H]2CN1C[C@@H](O)[C@H](Cc1ccccc1)NC(=O)[C@H](CC(N)=O)NC(=O)c1ccc2ccccc2n1", "note": "[Saquinavir]", "values": [
      {"measurement": "lymphocyte proliferation (CFSE)", "setting": "[2]", "value": "block the proliferation"},
      {"measurement": "fall in Δφm", "setting": "[3]", "value": "70-80%"}
    ]},
    {"molecule": "O=c1[nH]cnc2c1ncn2[C@H]1CC[C@@H](CO)O1", "note": "[ddl]", "values": [
      {"measurement": "replication of five primary HIV-1 isolates of R5 tropism", "setting": "[4]", "value": "strong inhibition of viral replication"}
    ]},
    {"molecule": "CC(C)CC(=O)N[C@H](C(=O)N[C@H](C(=O)N[C@@H](CC(C)C)[C@@H](O)CC(=O)N[C@@H](C)C(=O)N[C@@H](CC(C)C)[C@@H](O)CC(=O)O)C(C)C)C(C)C", "note": "[pepstatin A] (Isovaleryl-VV[Sta]A[Sta]-OH)", "values": [
      {"measurement": "mitochondrial damage: apoptogenic factors Cytochrome C, Smac/Diablo and EndoG in the cytosol fraction", "setting": "[5]", "value": "no effect"}
    ]},
    {"molecule": "CC(C)[C@H](NC(=O)OCc1ccccc1)C(=O)N[C@@H](C)C(=O)N[C@@H](CC(=O)O)C(=O)CF", "note": "[z-VAD-fmk, N-benzyloxycarbonyl-Val-Ala-Asp-fluoromethyl ketone] (Cbz-Val-Ala-Asp-CH2F)", "values": [
      {"measurement": "inhibition of apoptosis", "setting": "[1]", "value": "inhibits apoptosis in a dose-dependent manner"},
      {"measurement": "effect on viral replication", "setting": "[6]; T-leukaemia cells (CEM) or PBMC exposed to HIV-1 (Chinnaiyan et al., 1997)", "value": "increasing viral replication"},
      {"measurement": "endogenous viral replication", "setting": "[6]; activated PBMCs from HIV-1-positive asymptomatic patients (Chinnaiyan et al., 1997)", "value": "stimulating endogenous viral replication"},
      {"measurement": "inhibition of viral replication", "setting": "[6]; in vitro (Gandhi et al., 1998; Petit et al., 2002)", "value": "nor does it inhibit viral replication; also recorded: did not enable viral replication to be inhibited"},
      {"measurement": "apoptotic phenotype (condensation and fragmentation of the nuclear chromatin)", "setting": "[7]", "value": "prevents the apoptotic phenotype"},
      {"measurement": "prevention of mitochondrial depolarization, apoptosis or cell death", "setting": "[7]", "value": "does not inhibit apoptosis"},
      {"measurement": "prevention of mitochondrial depolarization, apoptosis or cell death", "setting": "[7]; listed as zVAD-kmk", "value": "does not prevent either mitochondrial depolarization or cell death"}
    ]},
    {"molecule": "Q-DEVD-OPH", "values": [
      {"measurement": "inhibition of viral replication (p24)", "setting": "[8]; d5", "value": "weak effect"},
      {"measurement": "inhibition of viral replication (p24)", "setting": "[8]; d7", "value": "absence of protection"},
      {"measurement": "death, fall in the mitochondrial transmembrane potential (% Δφm low)", "setting": "[9]", "value": "absence of effect"},
      {"measurement": "quantity of viral proteins produced", "setting": "[10]", "value": "slightly lower"}
    ]}
  ]
}
